Measurements taken from article PMC7698783, “Performance of Population Pharmacokinetic Models in Predicting Polymyxin B Exposures” (Microorganisms, 2020).
Values joined by “and” are separate entries in the source; they are usually repeats but may differ in a detail not shown here. Identical values can stand only once. Positions of bridges follow the written chain, without caps; N, C: chain ends. Non-standard residues stand in square brackets, D forms with d. Residues, ends and D or L forms follow the SMILES beside them. *: point of attachment. X1 = CC[C@H](C)CCCCC(=O)*; Dab = NCC[C@H](N)C(=O)O

Tests used:
[1] = 3 population PK studies, no demographic variables linked to total clearance; cited from earlier work
Source text: In contrast, body weight was linked to total clearance in a study using a two-compartment model. Finally, creatinine clearance had been linked to total clearance of polymyxin B in cystic fibrosis patients. || There were several limitations in our study. Only a limited number of (primarily male) patients were enrolled with standard clinical dosing and dosing frequency. The robustness of our conclusion would be enhanced with a larger sample size and a wider range of dosing regimens. Also, the observed AUC values for comparison were based only 4 data points over a single dosing interval.

[2] = Steady-state plasma pharmacokinetics of intravenous polymyxin B in adult patients (LC-MS/MS, ADAPT 5 compartment fitting); type: in vivo; settings: human, one-compartment model, 13 adult patients, i.v. every 12 h, median, read-out: best-fit elimination half-life (median) (converted)
Procedure: This was a prospective observational study. The study was conducted from March 2016 to March 2018 at two major teaching hospitals in Singapore: Tan Tock Seng Hospital (TTSH) and Singapore General Hospital (SGH). Adult patients (21 years of age or greater) who received intravenous polymyxin B (USP) for the treatment of suspected or confirmed bacterial infections were enrolled. The dose, dosing interval, and infusion duration of polymyxin B administration were as prescribed by the respective attending medical teams. Patients who were pregnant, on dialysis, with burns or spinal cord injury were excluded.
For each subject, four blood samples were obtained serially over one dosing interval at steady state (presumably after the third day of therapy). Since the dosing regimens were not standardized, a sampling scheme spanning the samples over the dosing interval was adopted to accommodate different scenarios. Sample 1 was obtained within 0.5 h prior to the next scheduled dose, sample 2 was obtained 0.5–1 h after the end of drug administration, sample 3 was obtained 3–8 h after the end of drug administration, and sample 4 was obtained within 4 h prior to the next scheduled dose. All samples were specifically timed in relation to drug administration. […] Polymyxin B concentrations in plasma samples were determined using a validated liquid chromatography tandem mass spectrometry method. […]

In the case of `CC[C@H](C)CCCCC(=O)N[C@@H](CCN)C(=O)N[C@H](C(=O)N[C@@H](CCN)C(=O)N[C@H]1CCNC(=O)[C@H]([C@@H](C)O)NC(=O)[C@H](CCN)NC(=O)[C@H](CCN)NC(=O)[C@H](CC(C)C)NC(=O)[C@@H](Cc2ccccc2)NC(=O)[C@H](CCN)NC1=O)[C@@H](C)O` [polymyxin B] (X1-[Dab]T[Dab][Dab][Dab][dF]L[Dab][Dab]T; lactam 4-C), the “estimates of clearance (total clearance) in population pharmacokinetic studies” value [1] is listed as 2.4 L/h and 2.5 L/h and 2.6 L/h and the half-life [2] is listed as 6.8 h.
